Data: patent US9808496B2, “Use of a myrtle extract as an anti-biofilm agent against P. acnes” (PIERRE FABRE DERMO-COSMETIQUE, priority 2012, dated 2017)

Columns and labels:
Format in all cases: cell-based, Propionibacterium acnes
P. acnes B872 (eryS) = assay: Activity of the combination erythromycin/myrtle extract on P. acnes biofilm (24-well microplate); details: erythromycin 1000 μg/ml alone, 24 h contact on 48 h biofilm
Protocol: (§1) Myrtle extract is prepared according to example 2.
(§2) • Four Propionibacterium acnes strains were selected: Two Erythromycin-Resistant Strains (ERY R) • Propionibacterium acnes CIP 110371 • clinical isolate R4 Two Erythromycin-Sensitive Strains (ERY S) • Propionibacterium acnes CIP 53117T • clinical isolate B872 Protocol
(§3) A titrated suspension of P. acnes (about 10^6 CFU/ml), in minimal broth allowing no bacterial growth, was deposited in the wells of a 24-well microplate.
(§4) The microplates are placed under anaerobic conditions at 37±2° C. for 48 h, the time established for biofilm to form.
(§5) After 48 h, the supernatant of each well is discarded and then the wells are rinsed. Erythromycin and myrtle extract at various concentrations are added for a contact time of 24 h on the adhered cells (72 hours of adhesion in total).
(§6) The erythromycin concentration selected is 1000 μg/ml.
(§7) After 72 h of adhesion: • planktonic cells are counted • adhered (sessile) cells are counted after rinsing the well and then scraping in tryptone salt
(§8) Controls were prepared in parallel (adhered+planktonic cells) • 72 h biofilm control (with the medium changed at 48 h) • myrtle control at various concentrations (added after 48 h/24 h of contact) • 1000 μg/ml erythromycin control (added at 48 h/24 h of contact) • myrtle extract control at the concentrations tested
(§9) For all the wells in contact with erythromycin, 1 ml of each dilution is filtered on a membrane (Microfil®, Millipore) and then the filter is rinsed three times with 50 ml of sterile distilled water. The membranes are deposited on Columbia agar+5% sheep blood. The plates are incubated at 37±2° C. under anaerobic conditions. After 72 h to 96 h of incubation, the colony forming units (CFUs) are counted.
(§10) For all the biofilm controls and the myrtle extract alone, 100 μl of each dilution is inoculated by streaking on Columbia agar+5% sheep blood. The plates are incubated at 37±2° C. under anaerobic conditions. After 72 h to 96 h of incubation, the CFUs are counted. Results
(§11) This test consisted in evaluating the activity of erythromycin (1000 μg/ml) combined with myrtle extract, at concentrations of 0.03%, 0.001% and 0.0001%.
(§12) The results are expressed in log of the population counted.

[1] = system: P. acnes CIP 110371 (eryR); assay: as above; details: erythromycin 1000 μg/ml alone, 24 h contact on 48 h biofilm, limit of detection 1.3 log
Protocol: as §1, §2, §3, §4, §5, §6, §7, §8, §9, §10, §11, §12

[2] = system: P. acnes CIP 53117T (eryS); assay: as above; details: erythromycin 1000 μg/ml alone, 24 h contact on 48 h biofilm, limit of detection 1.3 log
Protocol: as §1, §2, §3, §4, §5, §6, §7, §8, §9, §10, §11, §12

P. acnes R4 (eryR) = assay: as above; details: erythromycin 1000 μg/ml alone, 24 h contact on 48 h biofilm
Protocol: as §1, §2, §3, §4, §5, §6, §7, §8, §9, §10, §11, §12

[3] = system: two erythromycin-resistant strains (ERY R); assay: Bactericidal activity of erythromycin on isolated bacteria; details: 1000 μg/ml
Protocol: as §6

[4] = system: P. acnes eryS strains and eryR strains; assay: Erythromycin/myrtle extract on P. acnes biofilm, general conclusion over the strains
Protocol: as §2, §3, §4, §5, §7

CC[C@H]1OC(=O)[C@H](C)[C@@H](O[C@H]2C[C@@](C)(OC)[C@@H](O)[C@H](C)O2)[C@H](C)[C@@H](O[C@@H]2O[C@H](C)C[C@H](N(C)C)[C@H]2O)[C@](C)(O)C[C@@H](C)C(=O)[C@H](C)[C@@H](O)[C@]1(C)O [Ery, erythromycin]
Planktonic cells, Log (number of CFU/well) (P. acnes B872 (eryS); untreated control 4.0): 1.3 Log (number of CFU/well) | Adhered cells, Log (number of CFU/well) (P. acnes B872 (eryS); untreated control 4.4): 4.0 Log (number of CFU/well) | Planktonic cells, Log (number of CFU/well) ([1]; untreated control 5.0): 4.2 Log (number of CFU/well) | Adhered cells, Log (number of CFU/well) ([1]; untreated control 5.3): 4.1 Log (number of CFU/well) | Adhered cells, Log (number of CFU/well) ([2]; untreated control 5.1): 4.3 Log (number of CFU/well) | Planktonic cells, Log (number of CFU/well) ([2]; untreated control 5.5): 1.3 Log (number of CFU/well) | Planktonic cells, Log (number of CFU/well) (P. acnes R4 (eryR); untreated control 3.7): 3.5 Log (number of CFU/well) | Adhered cells, Log (number of CFU/well) (P. acnes R4 (eryR); untreated control 4.5): 3.5 Log (number of CFU/well) | Bactericidal activity [3]: did not have bactericidal activity | Bactericidal activity of erythromycin alone [4]: high
